This is an account of results in patent US12590106B2, “Spiromacrocyclic orexin 2 receptor agonists” (H. Lundbeck A/S, priority 2023, dated 2026).

SMILES strings stand for the structures. Where two headings read alike, the source gives them in different places.

The test has as its target T1, human Ox2R (Homo sapiens, UniProt O43614).
T1 construct: The gene encoding hOx2R was subcloned into the expression plasmid pcDNA5/FRT/TO; expressed in transfected cells; host or cells: CHO Flp-In cells (pcDNA5/FRT/TO with pOG44 Flp recombinase vector, hygromycin B selection)
T1 sequence (O43614 1-444): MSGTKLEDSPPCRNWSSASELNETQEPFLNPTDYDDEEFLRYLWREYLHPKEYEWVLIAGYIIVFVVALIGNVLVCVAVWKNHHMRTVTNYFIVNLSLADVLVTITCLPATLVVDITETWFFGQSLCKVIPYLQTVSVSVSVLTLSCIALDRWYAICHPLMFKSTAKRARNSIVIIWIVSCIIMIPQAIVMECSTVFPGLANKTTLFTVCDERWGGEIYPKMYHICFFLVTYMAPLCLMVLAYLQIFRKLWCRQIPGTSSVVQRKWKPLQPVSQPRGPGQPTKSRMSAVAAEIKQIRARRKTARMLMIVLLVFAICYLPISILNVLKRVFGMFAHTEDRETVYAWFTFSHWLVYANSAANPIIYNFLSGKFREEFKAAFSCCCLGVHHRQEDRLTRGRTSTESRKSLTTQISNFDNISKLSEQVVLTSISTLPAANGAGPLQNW
The experiment in a line: Measurement of OX2R agonist activity (cell-based calcium release assay). The note with it: for EC50: intracellular calcium. The source says:
Measurement of OX2R Agonist Activity
The Ox2R has a broad signaling profile and couple to a range of different Gα-proteins. The cell-based calcium release assay is primarily assessing signaling through the Gαq signaling pathway, which promotes calcium mobilization via inositol triphosphate production upon activation of Ox2R.
A CHO Flp-In cell-line stably expressing the human Ox2R (hOx2R-CHO Flp-In) was established as follows: The gene encoding hOx2R was subcloned into the expression plasmid pcDNA5/FRT/TO and then transfected into CHO Flp-In cells together with the Flp recombinase vector, pOG44. Cells were cultured in growth medium: Ham's F12 (Gibco), 10% fetal bovine serum (Gibco) and 100 U/mL penicillin-streptomycin (Gibco) supplemented with hygromycin B (Thermo Fisher Scientific) as selection marker at 37° C. in the presence of 5% CO2.
To prepare the hOx2R-CHO FlpIn cells for calcium release assay, the cells were suspended in growth medium and seeded in black, clear-bottomed 384-well plates (Corning) at 10,000 cells/well. The plated cells were grown overnight at 37° C. and 5% CO2. The following day, the media was removed, and the cells were incubated with assay buffer (HBSS with 20 mM HEPES, pH 7.4) containing 2.5 mM probenecid (Thermo Fisher Scientific), 10 mM CaCl2, 0.1% pluronic F68 (Gibco) and 1× calcium-4 dye (Molecular Devices) for 1 h at 37° C. and 5% CO2. After incubation, cells were allowed to equilibrate at room temperature for 15 minutes and then loaded into FDSS7000Ex system (Hamamatsu Photonics) together with a plate containing test compounds serially diluted in assay buffer. Cells were stimulated with test compounds (online injection) and the agonist activity was determined as an increase in intracellular calcium concentration measured from the ratio of fluorescence emission at 542 nm by excitation at 480 nm. The agonist response for each applied concentration was assessed as the ratio: maximum fluorescence/average pre-stimulated fluorescence and was normalized to responses from assay buffer alone (0% response) and 10 μM Danavorexton (100% response). EC50 and Emax values were calculated from concentration-response curves by using Genedata Screener software.

Where [1] appears, read: hOx2R-CHO Flp-In cells, n≥2 tests, read-out: EC50.
Where [2] appears, read: hOx2R-CHO Flp-In cells, normalized to assay buffer (0%) and 10 μM Danavorexton (100%), n≥2 tests, read-out: Emax (%).

With `C[C@@H]1Oc2c(F)cccc2-c2cc(ccc2F)C[C@@]2(CC[C@H](NS(C)(=O)=O)C2)c2nc1co2` [Example 3, N-[(1′S,9S,14R)-6,19-difluoro-9-methyl-spiro[8,12-dioxa-21-azatetracyclo[14.3.1.110,13.02,7]henicosa-1(19),2(7),3,5,10,13(21),16(20),17-octaene-14,3′-cyclopentane]-1′-yl]methanesulfonamide], the EC50 under setting [1] was 0.97 nM. Besides, the Emax under setting [2] was found to be 99%.

For `CCS(=O)(=O)N[C@H]1CC[C@@]2(Cc3cc(c(F)cc3F)-c3cccc(F)c3OCc3coc2n3)C1` [Example 84, N-[(1′S,14R)-6,17,19-trifluorospiro[8,12-dioxa-21-azatetracyclo[14.3.1.110,13.02,7]henicosa-1(19),2,4,6,10,13(21),16(20),17-octaene-14,3′-cyclopentane]-1′-yl]ethanesulfonamide], the EC50 under setting [1] was 0.25 nM. Under setting [2], the maximal effect (Emax) came to 100%.

For `C[C@@H]1C[C@@H](NS(C)(=O)=O)C[C@@]12Cc1ccc(F)c(c1)-c1ccccc1OCc1coc2n1` [Example 63, N-[(1′R,4′R,14S)-19-fluoro-4′-methyl-spiro[8,12-dioxa-21-azatetracyclo[14.3.1.110,13.02,7]henicosa-1(19),2,4,6,10,13(21),16(20),17-octaene-14,3′-cyclopentane]-1′-yl]methanesulfonamide or N-[(1′S,4′S,14R)-19-fluoro-4′-methyl-spiro[8,12-dioxa-21-azatetracyclo[14.3.1.110,13.02,7]henicosa-1(19),2,4,6,10,13(21),16(20),17-octaene-14,3′-cyclopentane]-1′-yl]methanesulfonamide], under setting [1], the EC50 is 1.4 nM. The “Emax (%)” value (hOx2R-CHO Flp-In cells, normalized to assay buffer (0%) and 10 μM Danavorexton (100%), n≥2 tests) is recorded as 100%.

With `CS(=O)(=O)N[C@H]1CC[C@@]2(CO[C@H]3CC[C@H](CC3)c3ccccc3OCc3coc2n3)C1` [Example 2, N-[(1s,1′S,14R,17s)-spiro[8,12,16-trioxa-22-azatetracyclo[15.2.2.110,13.02,7]docosa-2,4,6,10,13(22)-pentaene-14,3′-cyclopentane]-1′-yl]methanesulfonamide], the EC50 under setting [1] came to 0.43 nM. Further, the maximum response (Emax) under setting [2] came to 99%.

With `C[C@H]1C[C@H](NS(C)(=O)=O)C[C@]12Cc1ccc(F)c(c1)-c1cccc(F)c1OCc1ccnc2n1` (single isomer, unassigned) [Example 94, N-[(1′S,4′S,15R)-6,20-difluoro-4′-methyl-spiro[8-oxa-13,22-diazatetracyclo[15.3.1.110,14.02,7]docosa-1(20),2,4,6,10,12,14(22),17(21),18-nonaene-15,3′-cyclopentane]-1′-yl]methanesulfonamide or N-[(1′R,4′R,15S)-6,20-difluoro-4′-methyl-spiro[8-oxa-13,22-diazatetracyclo[15.3.1.110,14.02,7]docosa-1(20),2,4,6,10,12,14(22),17(21),18-nonaene-15,3′-cyclopentane]-1′-yl]methanesulfonamide], the Emax was 94%. Besides, the 50% effective concentration (EC50) (EC50 (nM), hOx2R-CHO Flp-In cells, n≥2 tests) amounted to 6.7 nM.

For the compound `CN(C)S(=O)(=O)N[C@H]1CC[C@@]2(Cc3ccc(F)c(c3)-c3ccccc3OCc3coc2n3)C1` [Example 13, (3′S,14R)-3′-(dimethylsulfamoylamino)-19-fluoro-spiro[8,12-dioxa-21-azatetracyclo[14.3.1.110,13.02,7]henicosa-1(19),2,4,6,10,13(21),16(20),17-octaene-14,1′-cyclopentane]], under setting [1], the EC50 turned out to be 0.28 nM. Also, the Emax under setting [2] was 95%.

As for `CS(=O)(=O)N[C@H]1CC[C@@]2(Cc3cccc(c3)-c3ccccc3OCc3coc2n3)C1` [Example 38, N-[(1′S,14R)-spiro[8,12-dioxa-21-azatetracyclo[14.3.1.110,13.02,7]henicosa-1(20),2,4,6,10,13(21),16,18-octaene-14,3′-cyclopentane]-1′-yl]methanesulfonamide], the 50% effective concentration (EC50) under setting [1] was 4.3 nM. Besides, the Emax under setting [2] is 99%.
